Molecular target: T1, recombinant human deoxyuridine nucleotidohydrolase (dUTPase) (Homo sapiens, UniProt P33316)
T1 construct: made in house
T1 sequence (P33316 1-164 isoform P33316-2): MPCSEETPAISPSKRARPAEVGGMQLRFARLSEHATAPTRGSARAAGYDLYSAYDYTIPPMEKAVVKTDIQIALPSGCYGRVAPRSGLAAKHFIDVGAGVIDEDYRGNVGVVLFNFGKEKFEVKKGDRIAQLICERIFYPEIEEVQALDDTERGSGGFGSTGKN
Assay: dUTPase inhibition, fluorescence-based DNA polymerase assay
Format: biochemical
Details: not given
Excerpt: Recombinant human deoxyuridine nucleotidohydrolase (dUTPase) is expressed and purified as described in Ladner R D, Carr S A, Huddleston M J, McNulty D E, Caradonna S J. J Biol Chem. 1996 Mar. 29; 271(13):7752-7. All drugs stocks are aliquoted and diluted as appropriate prior to use. The oligonucelotide primer, templates and fluorophore- and quencher-labeled detection probes are synthesized by Integrated DNA Technologies (Coralville, Iowa), subjected to polyacrylamide gel electrophoresis purification and reconstituted in Omnipur sterile nuclease-free water (EMD Chemicals USA, Gibbstown N.J.) at a stock concentration of 100 μmol/L. The two non-emissive (dark) quenching molecules incorporated into the detection probes include the Iowa black fluorescein quencher (IBFQ; absorption max 531 nm) and ZEN (non-abbreviation; absorption max 532 nm). The fluorescent label utilized is 6-FAM (5′-carboxyfluorescein; excitation max.=494 nm, emission max.=520 nm). Probes are further diluted to a working stock of 10 μmol/L and aliquoted to avoid repeated freeze/thaw cycles. AmpliTaq Gold DNA Polymerase, GeneAmp 10×PCR Buffer 2, MgCl2 and MicroAmp Optical 96-well Reaction Plates are purchased from Applied Biosystems (Carlsbad, Calif.). dNTPs are purchased individually at stock concentrations of 100 mmol/L from New England Biolabs at HPLC-certified >99% purity (Ipswich, Mass.).
Reaction mixtures contained primer, probe and template at an equimolar final concentration of 0.4 μmol/L. Magnesium chloride (MgCl2) is included at a final concentration of 2 mmol/L. Non-limiting dNTPs are included in the reaction mix in excess at a final concentration of 100 μmol/L (dUTP/dTTP is excluded). AmpliTaq Gold DNA polymerase is added at 0.875 U/reaction, 2.5 μl of 10×PCR buffer 2 added and nuclease-free ddH2O added to a final reaction volume of 25 μl. For dUTP inhibition analysis, the volume of ddH2O is further modified to accommodate an additional 1 μl of dUTPase (10 ng/μl) and 1 μl of inhibitor or DMSO control. Thermal profiling and fluorescence detection is performed using a customized thermal program on board a Roche Lightcycler LC480 Instrument II. For analysis of dNTPs, the thermal profile consisted of an 8 min 37° C. step followed by a 10 min 95° C. step to ‘hot-start’ the Taq polymerase and a primer extension time of up to 30 min at 60° C. Raw fluorescence spectra for 6-FAM is measured at specified time intervals to follow assay progression on board a Roche LightCycler 480 Software Version 1.5 and exported and analyzed in Microsoft Excel (Microsoft, Redmond Wash.) and Prism (GraphPad Software, La Jolla Calif.). Fluorescence values for blank reactions (limiting dNTP omitted) are subtracted to give normalized fluorescence units (NFU) to account for background fluorescence.
Test compounds are screened in a fluorescence-based assay. The assay employs a DNA polymerase-based approach utilizing an oligonucleotide template with 3 distinct regions: a 3′ primer binding region, a mid-template dUTP/thymidine triphosphate (TTP) detection region and a 5′ 6-[…] (FAM)-labeled probe binding region that incorporates a black hole quenching moiety. During the reaction, the probe and primer hybridize to the oligonucleotide template to form the template:primer:probe complex. When Taq polymerase binds to the primer in the TPP complex and dUTP is present, successful extension of the nascent strand occurs and the inherent 5′ to 3′ exonuclease activity of Taq polymerase cleaves and displaces the 6-FAM-labeled probe in a 5′ to 3′ direction, releasing the 6-FAM fluorophore from its proximity to the […]. This displacement effectively disrupts the Forster resonance energy transfer (FRET) and the resulting fluorescence detected upon excitation is directly proportional to the amount of the dUTP available in the assay for incorporation. […]

Point of comparison: CC(C)(NS(=O)(=O)c1cccc(OC2CCCC2)c1)c1ccc(CN2CC(=O)NC2=O)cc1 [Example 41, 3-(cyclopentyloxy)-N-(2-(4-((2,4-dioxoimidazolidin-1-yl)methyl)phenyl)propan-2-yl)benzenesulfonamide], IC50 300 nM. Against it:
- O=C1CN(Cc2ccc(CNS(=O)(=O)c3cccc(OC4CCCC4)c3)cc2)C(=O)N1 [Example 40, 3-(cyclopentyloxy)-N-(4-((2,4-dioxoimidazolidin-1-yl)methyl)benzyl)benzenesulfonamide] — 4.7-fold higher, 1400 nM

Same assay, conditions: mean over three concentrations, typically 100, 50 and 25 μmol/L, relative to in-run positive control

Point of comparison: O=C1CCN(C/C=C/CCCNS(=O)(=O)c2ccc(F)c(OCC3CC3)c2)C(=O)N1 [Compound 49b, (E)-3-(cyclopropylmethoxy)-N-(6-(2,4-dioxotetrahydropyrimidin-1(2H)-yl)hex-4-en-1-yl)-4-fluorobenzenesulfonamide], “% relative inhibition vs. positive control” value 144%. Against it:
- O=C1CN(C/C=C/CCCNS(=O)(=O)c2cccc(OCC3CC3)c2)C(=O)N1 [Compound 44a, (E)-3-(cyclopropylmethoxy)-N-(6-(2,4-dioxoimidazolidin-1-yl)hex-4-en-1-yl)benzenesulfonamide] — higher, 159%
- O=C1CN(CCCCCCNS(=O)(=O)c2ccc(F)c(OCC3CC3)c2)C(=O)N1 [Compound 44b, 3-(cyclopropylmethoxy)-N-(6-(2,4-dioxoimidazolidin-1-yl)hexyl)-4-fluorobenzenesulfonamide] — higher, 168%
- CC(C)COc1cc(S(=O)(=O)NCCC/C=C/CN2CC(=O)NC2=O)ccc1F [Compound 45a, (E)-N-(6-(2,4-dioxoimidazolidin-1-yl)hex-4-en-1-yl)-4-fluoro-3-isobutoxybenzenesulfonamide] — higher, 178%
- CC(C)COc1cc(S(=O)(=O)NCCCCCCN2CC(=O)NC2=O)ccc1F [Compound 45b, N-(6-(2,4-dioxoimidazolidin-1-yl)hexyl)-4-fluoro-3-isobutoxybenzenesulfonamide] — higher, 151%
- O=C1CCN(C/C=C/CCCNS(=O)(=O)c2ccc(F)c(OCC3CC3)c2)C(=O)N1 [Compound 49a, (E)-3-(cyclopropylmethoxy)-N-(6-(2,4-dioxotetrahydropyrimidin-1(2H)-yl)hex-4-en-1-yl)-4-fluorobenzenesulfonamide] — higher, 151%
- CC(C)COc1cc(S(=O)(=O)NCCC/C=C/CN2CCC(=O)NC2=O)ccc1F [Compound 50a, (E)-N-(6-(2,4-dioxotetrahydropyrimidin-1(2H)-yl)hex-4-en-1-yl)-4-fluoro-3-isobutoxybenzenesulfonamide] — higher, 156%
- CC(C)COc1cc(S(=O)(=O)NCCCCCCN2CCC(=O)NC2=O)ccc1F [Compound 50b, N-(6-(2,4-dioxotetrahydropyrimidin-1(2H)-yl)hexyl)-4-fluoro-3-isobutoxybenzenesulfonamide] — lower, 141%
- O=C1CN(Cc2ccc(CNS(=O)(=O)c3cccc(OC4CCCC4)c3)cc2)C(=O)N1 [Example 40, 3-(cyclopentyloxy)-N-(4-((2,4-dioxoimidazolidin-1-yl)methyl)benzyl)benzenesulfonamide] — lower, 53%
- CC(C)(NS(=O)(=O)c1cccc(OC2CCCC2)c1)c1ccc(CN2CC(=O)NC2=O)cc1 [Example 41, 3-(cyclopentyloxy)-N-(2-(4-((2,4-dioxoimidazolidin-1-yl)methyl)phenyl)propan-2-yl)benzenesulfonamide] — higher, 249%
- O=C1CN(CCOCCCNS(=O)(=O)c2cccc(OCC3CC3)c2)C(=O)N1 [Example 42, 3-(cyclopropylmethoxy)-N-(3-(2-(2,4-dioxoimidazolidin-1-yl)ethoxy)propyl)benzenesulfonamide] — lower, 136%
- O=C1CCN(CCOCCCNS(=O)(=O)c2cccc(OCC3CC3)c2)C(=O)N1 [Example 47, 3-(cyclopropylmethoxy)-N-(3-(2-(2,4-dioxotetrahydropyrimidin-1(2H)-yl)ethoxy)propyl) benzenesulfonamide] — lower, 8%
- O=C1CCN(CCCOCCNS(=O)(=O)c2cccc(OCC3CC3)c2)C(=O)N1 [Example 48, 3-(cyclopropylmethoxy)-N-(2-(3-(2,4-dioxotetrahydropyrimidin-1(2H)-yl)propoxy)ethyl)benzenesulfonamide] — lower, 82%

System: colorectal (HCT 116 and SW620) cell line models
Assay: MTS growth inhibition assay
Format: cell-based
Details: 5-FU between 0 and 100 μmol/L; both colorectal cancer cell lines
Protocol: The Cell Titer AQueous MTS assay (Promega) is carried out according to the manufacturers guidelines. […] The combination effect is determined by the combination index (CI) method utilizing Calcusyn software (Biosoft, Ferguson, Mo.). […] CI values <1, synergism; 1-1.2, additive and >1.2, antagonism.
Test compounds are evaluated for their antitumor activity in colorectal cancer cells using the MTS growth inhibition assay. HCT116 and SW620 cells are exposed to increasing concentrations of each agent for 72 hours and growth inhibition is directly compared to vehicle-treated controls. The NSCLC cell lines A549 and H1299 are exposed to increasing concentrations of each agent for 72 hours and growth inhibition is directly compared to vehicle-treated controls.
Simultaneous treatment with increasing concentrations of 5-FU and a test compound at fixed concentrations of 25 μmol/L is determined.

O=c1[nH]cc(F)c(=O)[nH]1 [Example 5-FU, 5-fluorouracil] was tested, and the growth inhibition was “dose-dependent increases in growth inhibition”.

System: colorectal (HCT116), breast (MCF-7) and non-small cell lung (H1299, A549, H358 and H460) cell line models
Assay: Colony forming assay
Format: cell-based
Details: FUdR between 0.5 and 2.5 μmol/L; all cell lines evaluated
Protocol: Colony forming assay showing the ability of colon (SW620, HCT116), non-small cell lung (A549, H460, H1299 and H358) and breast (MCF7) cancer cells to survive and proliferate following transient 24 hour exposure to test compounds, FUdR and combinations are determined. Specifically, cells are seeded at densities between 50 and 100 cells/well in 24-well plates. Twenty-four hours later, cells are treated with increasing concentrations of a rtest compound, a fixed dose of FUdR and combinations of these. After 24 hours, drug is removed, cells are rinsed and allowed to outgrow for 10-14 days. At the conclusion of the outgrowth, cells are fixed in 60% ice cold methanol and stained with 0.1% crystal violet, scanned and counted. Data is presented as percentage of untreated controls (mean±SD). Fraction affected and combination indexes are calculated according to the method of Chou and Talalay where <1 is indicative of a synergistic drug interaction.
Colony forming assays are performed to evaluate the effectiveness of test compounds alone and in combination with the fluoropyrimidine thymidylate synthase (TS) inhibitor fluorodeoxyuridine (FUdR) at reducing cancer cell viability in colorectal (HCT116), breast (MCF-7) and non-small cell lung (H1299, A549, H358 and H460) cell line models. […]

O=c1[nH]c(=O)n([C@H]2C[C@H](O)[C@@H](CO)O2)cc1F [FUdR, fluorodeoxyuridine] was tested, and the colonies formed was “dose-dependent decreases in colonies formed”.

Reference: US11168059B2, “Amino sulfonyl compounds” (CV6 Therapeutics (NI) Limited, priority 2016, dated 2021)
